{"source": "paper PMC7092479", "about": "“Antiviral activity of silymarin in comparison with baicalein against EV-A71” (BMC Complementary Medicine and Therapies, 2020)", "key": {"[1]": {"experiment": "Cytotoxicity assay (MTS) in RD cells", "conditions": "human, CC50 (half maximal cytotoxic concentration), 24 h, MTS assay", "description": "(§1) CellTiter 96® AQueous One Solution Cell Proliferation MTS [3-(4,5-dimethylthiazol-2-yl)-5-(3-carboxymethoxyphenyl)-2-(4-sulfophenyl)-2H-tetrazolium] assay kit (Promega, Madison, WI, USA) was used to evaluate the cytotoxicity of the three flavonoids according to the manufacturer’s instruction. Briefly, RD or Vero cells were seeded overnight in 96 well plates with a density of 2 × 10^5 cells/mL. Cells were then treated with various concentrations of silymarin (6.25, 12.5, 25, 50,100 and 200 μg/mL), baicalein (1.68, 3.37, 6.75, 13.5, 27, 54 and 108, μg/mL) and baicalin (2.78, 5.57, 11.15, 22.31, 44.63 and 89.26 μg/mL) prepared in maintenance media. RD or Vero cells without test compounds served as a negative control. The plate was further incubated for 24 h at 37 °C. An aliquot of 20 μL of MTS solution was added to each well and the plate was incubated for 1 h at 37 °C. The absorbance was measured at 490 nm with an Infinite 200 Pro Multiplate Reader (Tecan, Männdedorf, Switzerland) (Supplementary Figure S1). The half-maximal cytotoxic concentration (CC50) and 10% cytotoxic concentration (CC10) for each flavonoid were determined using GraphPad Prism software, version 7 (GraphPad Software, Calif, USA)."}, "[2]": {"test_system": "RD cells", "experiment": "Cytotoxicity assay (MTS) in RD cells", "description": "as §1"}, "[3]": {"experiment": "Cytotoxicity assay (MTS) in Vero cells", "conditions": "African green monkey, Vero cells", "description": "as §1"}, "[4]": {"test_system": "Vero cells", "experiment": "Cytotoxicity assay (MTS) in Vero cells", "description": "as §1"}, "[5]": {"test_system": "EV-A71", "experiment": "microbe, parasite or virus in culture", "format": "cell-based, Enterovirus 71 (EV-A71) strain 41 (5865/SIN/000009)", "conditions": "for inhibition at 54 µg/mL: EVA71, RD, read-out: Inhibition of EV-A71 viral infectivity, virucidal assay", "description": "(§2) The plaque assay was performed using the method described by Tan et al. (2012) with minor modifications. Briefly, 6 well plates with 6 × 10^5 RD cells/mL were prepared and incubated to grow overnight at 37 °C. The supernatants collected from antiviral assays were serially diluted (10-folds) and the cell monolayer was infected with each dilution. The plates were incubated at 37 °C for 1 h. After removal of the inoculum, 1.5–2 mL of 0.9% of high viscosity carboxy methyl cellulose (CMC) (Sigma Aldrich, MO, USA) with 2% FBS in DMEM (overlay media) were added to each well. After incubation for 3 days, the overlaid media was removed. The cells were washed three times with phosphate buffered saline (PBS), fixed with 3.7% formaldehyde and stained with 0.5% crystal violet. The plaques were counted manually against a white background and pictures were taken using the CTL Immunospot® S6 Versa (Cleveland, OH, USA). All experiments were performed as three independent replicates.\n(§3) RNA extractions were performed using the QIAamp ViralRNA mini kit (Qiagen, Hilden, Germany) according to the manufacturer’s instructions. TaqMan® Fast virus 1-step master mix (ABI, Carlsbad, Calif, USA) was used to carry out qRT-PCR in the CFX96 TouchTM Real-Time PCR Detection System (Bio-Rad, Calif, USA). The cDNA synthesis was carried out by reverse transcription for 5 min at 50 °C and subsequently amplified for 40 cycles at 95 °C for 3 s, 60 °C for 30 s. A standard graph was plotted using serial dilutions of the standard viral stock. The threshold cycle value (Cq) was calculated using the default setting of the machine. All experiments were performed in triplicates.\nRD cells (2 × 10^4/well) were grown overnight in wells of a 96 well plate. The virus was pre-treated with each of the flavonoids for 1 h at MOI of 1 (pfu/ml = 2 × 10^4/0.1 mL). Cells were infected with the pre-treated virus-flavonoid-mixture. The inoculum was allowed to incubate with the RD cells at 37 ° for 1 h. After 1 h, the inoculum was removed, cells were washed with PBS and maintenance media was replaced. After 24 h, the supernatant was collected and infectious viral titers were quantified using the plaque assay. RNA copy number was determined by qRT-PCR [21] [Supplementary Figure S2(a)]."}, "[6]": {"test_system": "EV-A71", "experiment": "Time course assay for virucidal activity", "format": "cell-based, Enterovirus 71 (EV-A71) strain 41 (5865/SIN/000009)", "conditions": "54 μg/mL, 60 min co-incubation with EV-A71 at 37 °C, plaque assay", "description": "as §2, with “After removal of the inoculum, 1.5–2 mL of 0.9% of high viscosity carboxy methyl cellulose (CMC) (Sigma Aldrich, MO, USA) with 2% FBS in DMEM (overlay media) were added to each well.” left out, “replicates. RD cells (2 × 10^4/well) were grown overnight in wells of a 96 well plate. […] Cells were infected with the pre-treated virus-flavonoid-mixture and allowed to incubate with the RD cells at 37 °C for 1 h. After 1 h, the inoculum was removed, cells were washed with PBS and maintenance media was added. After 24 h, the supernatant was collected and infectious viral titers were quantified using the plaque assay.” for “replicates.”"}, "[7]": {"test_system": "EV-A71", "experiment": "Cell protection assay (RD cells pre-treated)", "format": "cell-based, Enterovirus 71 (EV-A71) strain 41 (5865/SIN/000009)", "conditions": "54 μg/mL; for inhibition at 54 µg/mL: Enterovirus A, EVA71, RD, read-out: Inhibition of EV-A71 viral infectivity, cell protection assay", "description": "as §2, §3\nRD cells (2 × 10^4/well) were seeded overnight in each well within a 96 well plate. Cells were treated with different concentrations of a flavonoid for 1 h at 37 °C. After incubation, flavonoid containing media was removed and cells were washed with PBS. […] The supernatant was collected after 24 h and the infectious viral titers were quantified using the plaque assay. RNA copy number was determined using qRT-PCR [21] […]"}, "[8]": {"test_system": "EV-A71", "experiment": "Post-infection assay", "format": "cell-based, Enterovirus 71 (EV-A71) strain 41 (5865/SIN/000009)", "conditions": "added 1 h after RD cells were infected, data not shown", "description": "as §2, with “All experiments were performed as three independent replicates.” left out\nRNA extractions were performed using the QIAamp ViralRNA mini kit (Qiagen, Hilden, Germany) according to the manufacturer’s instructions. […] The threshold cycle value (Cq) was calculated using the default setting of the machine. […]\nRD cells (2 × 10^4/well) were grown overnight in wells of a 96 well plate. […] After 24 h, the supernatant was collected and infectious viral titers were quantified using the plaque assay. RNA copy number was determined using qRT-PCR [21] […]"}, "[9]": {"test_system": "EV-A71", "experiment": "microbe, parasite or virus in culture", "format": "cell-based, Enterovirus 71 (EV-A71) strain 41 (5865/SIN/000009)", "conditions": "for inhibition at 54 µg/mL: EVA71, 54 μg/mL, read-out: Inhibition of EV-A71 viral infectivity, comprehensive assay", "description": "as §2, §3\nRD cells (2 × 10^4/well) were grown overnight in wells of a 96 well plate. A monolayer of RD cells was pre-treated with various concentrations of a flavonoid for 1 h and incubated at 37 °C. Simultaneously, the virus at MOI of 1 (pfu/ml = 2 × 10^4/0.1 mL) was pre-treated with the same concentrations of the flavonoid for 1 h at 37 °C. After incubation, flavonoid containing media was removed and the RD cells were washed with PBS. The flavonoid-treated virus was added to the pre-treated RD cells for 1 h at 37 °C. The inoculum was removed, RD cells were washed with PBS and replaced with the maintenance media (DMEM supplemented with 2% FBS). After 24 h, the supernatant was collected and infectious viral titers were quantified using the plaque assay. RNA copy number was determined using qRT-PCR [21] [Supplementary Figure S2(e)]."}, "[10]": {"test_system": "EV-A71", "parameters": "method as in Zhang et al. (2014) [27]", "conditions": "cells treated with 30 μM prior to EV-A71 infection; ref Zhang et al. (2014) [27]; cited from earlier work"}, "[11]": {"test_system": "RD cells", "parameters": "method as in Li et al. (2015) [16]", "conditions": "ref Li et al. (2015) [16]; cited from earlier work"}}, "note": "Like-named read-outs stand apart in the source and are kept apart here."}
{"compound": "O=c1cc(-c2ccccc2)oc2cc(O)c(O)c(O)c12", "note": "[Baicalein]", "values": [{"measurement": "CC50 at 24 h", "setting": "[1]; extrapolated value, above the tested concentration of 108 μg/mL", "result": "421.5 ± 3.23", "unit": "µg/mL"}, {"measurement": "CC10 (10% cytotoxic concentration)", "setting": "[2]; 24 h, MTS assay", "result": "90.93 ± 3.94", "unit": "µg/mL"}, {"measurement": "CC10 (10% cytotoxic concentration)", "setting": "[2]; 24 h, MTS assay, listed as baicalein", "result": 90.93, "unit": "µg/mL"}, {"measurement": "Concentration up to which no significant cytotoxic effects were observed", "setting": "[2]; 24 h incubation", "result": "≤ 54", "unit": "µg/mL"}, {"measurement": "CC50 at 24 h", "setting": "[3]", "result": "828.7 ± 0.93", "unit": "µg/mL"}, {"measurement": "CC10", "setting": "[4]; Vero cells, 24 h, MTS assay", "result": "148.9 ± 0.25", "unit": "µg/mL"}, {"measurement": "Virucidal Assay SI (CC50/IC50)", "setting": "[5]", "result": 13.64}, {"measurement": "Inhibition of EV-A71 viral infectivity, virucidal assay", "setting": "[5]; 54 μg/mL, plaque assay", "result": 65.0, "unit": "%"}, {"measurement": "inhibition at 54 µg/mL", "setting": "[5]; Enterovirus A, 54 μg/mL, plaque assay", "result": 64, "unit": "%"}, {"measurement": "inhibition at 54 µg/mL", "setting": "[5]; Enterovirus A, 54 μg/mL, qRT-PCR (RNA copy number)", "result": 78.8, "unit": "%"}, {"measurement": "IC50", "setting": "[5]; Enterovirus A, EVA71, plaque assay, RD cells, virus pre-treated 1 h, MOI 1, read-out: Virucidal Assay IC50", "result": "30.9 ± 5.5", "unit": "µg/mL"}, {"measurement": "Virucidal effects against EV-A71 (time course)", "setting": "[6]", "result": 60, "unit": "%"}, {"measurement": "Inhibition of EV-A71 viral infectivity, cell protection assay", "setting": "[7]; plaque assay", "result": "no inhibition"}, {"measurement": "inhibition at 54 µg/mL", "setting": "[7]; plaque assay", "result": 2.2, "unit": "%"}, {"measurement": "inhibition at 54 µg/mL", "setting": "[7]; qRT-PCR", "result": 0, "unit": "%"}, {"measurement": "Inhibition of EV-A71 post-infection", "setting": "[8]", "result": "non-inhibitory"}, {"measurement": "Comprehensive Assay SI (CC50/IC50)", "setting": "[9]", "result": 185.6}, {"measurement": "inhibition at 54 µg/mL", "setting": "[9]; Enterovirus A, plaque assay", "result": 89.4, "unit": "%"}, {"measurement": "inhibition at 54 µg/mL", "setting": "[9]; Enterovirus A, qRT-PCR (RNA copy number)", "result": 83, "unit": "%"}, {"measurement": "IC50", "setting": "[9]; Enterovirus A, EVA71, plaque assay, RD cells and virus both pre-treated 1 h, read-out: Comprehensive Assay IC50", "result": "2.27 ± 4.93", "unit": "µg/mL"}, {"measurement": "Effect as a prophylactic agent against EV-A71", "setting": "[10]", "result": "non-effective"}]}
{"compound": "O=C(O)[C@H]1O[C@@H](Oc2cc3oc(-c4ccccc4)cc(=O)c3c(O)c2O)[C@H](O)[C@@H](O)[C@@H]1O", "note": "[Baicalin, reference compound]", "values": [{"measurement": "CC50 at 24 h", "setting": "[1]", "result": 42.2, "unit": "µg/mL"}, {"measurement": "CC10 (10% cytotoxic concentration)", "setting": "[2]; 24 h, MTS assay", "result": "5.46 ± 5.02", "unit": "µg/mL"}, {"measurement": "CC50 (half maximal cytotoxic concentration)", "setting": "[2]; 24 h, MTS assay", "result": "42.21 ± 4.15", "unit": "µg/mL"}, {"measurement": "CC10 (10% cytotoxic concentration)", "setting": "[2]; 24 h, MTS assay, listed as baicalin", "result": 5.46, "unit": "µg/mL"}, {"measurement": "CC50 at 24 h", "setting": "[3]", "result": "30.47 ± 0.06", "unit": "µg/mL"}, {"measurement": "CC10", "setting": "[4]; Vero cells, 24 h, MTS assay", "result": "1.718 ± 0.16", "unit": "µg/mL"}, {"measurement": "CC50", "setting": "[11]", "result": 823.53, "unit": "µg/mL"}]}
{"compound": "Silymarin", "values": [{"measurement": "CC10", "setting": "[4]", "result": "314.2 ± 0.06", "unit": "µg/mL"}, {"measurement": "CC50", "setting": "[4]", "result": "753 ± 0.17", "unit": "µg/mL"}, {"measurement": "Concentration up to which no significant cytotoxicity was shown", "setting": "[4]", "result": "≤ 200", "unit": "µg/mL"}, {"measurement": "Virucidal Assay SI (CC50/IC50)", "setting": "[5]", "result": 10.53}]}
